Results reported in patent US4960678A, “Photochromic compounds” (Tokuyama Soda Kabushiki Kaisha, priority 1987, dated 1990).

Experiments:
Type in all cases: physicochemical
[1] = Xenon long-life fadeometer test of photochromic poly(methyl methacrylate) cast film (initial coloration density, T1/2, λmax), Example 9; conditions: poly(methyl methacrylate) cast film 0.1 mm; for Initial color density: initial coloration density (absorbance); for Initial color density / T1/2 (fatigue life): xenon fadeometer; for λmax: maximum absorption wavelength; for T1/2 (fatigue life): time for color density to decrease to half of initial value;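 on Initial color density: 0.5 part by weight compound dispersed with PMMA in 100 parts benzene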
Excerpt: The thickness of the cast film was adjusted to 0.1 mm.
(§1) T1/2 is defined as the time required for the color density to decrease to half of its initial value when the film is exposed to the fadeometer.

[2] = Durability test of poly(allyl diglycol carbonate) lens impregnated with compound in silicone oil, Example 10; conditions: for Initial color density / λmax: impregnated from silicone oil; for T1/2: impregnated from silicone oil at 200° C. for 1 hour, xenon fadeometer
Protocol: as §1
The solution was impregnated in the surface of a lens composed of poly(allyl diglycol carbonate) at 200° C. for 1 hour. The concentration of the solution was adjusted to 1.0×10^-4 mole/g.

[3] = Fading speed of poly(methyl methacrylate) cast film after mercury lamp irradiation, Example 9; conditions: mercury lamp 60 seconds at 20°±1° C., time to half absorbance after irradiation stopped
Protocol: The fading speeds of the cast films prepared as above were measured by the following procedure.
The cast film was exposed to a mercury lamp (SHL-100 made by Toshiba Co., Ltd.) at 20°±1° C. for 60 seconds from a distance of 10 cm. Then, the irradiation was stopped, and the fading speed was determined from changes in the absorbance of the cast film measured by a spectrophotometer (220A made by Hitachi Limited). The fading speed is expressed by the time which is required to the absorbance of the cast film to a value half of (the absorbance of the cast film at a maximum absorption wavelength immediately after 60 second irradiation)--(the absorbance of the non-irradiated cast film at the maximum wavelength) after light irradiation for 60 seconds.

[4] = Fatigue life of films of fulgimide or fulgide compounds with Cyasorb UV1084, Example 14; conditions: with Cyasorb UV1084 (0.2 part) as ultraviolet stabilizer in poly(methyl methacrylate) film; xenon fadeometer
[5] = Fatigue life of film of fulgimide compound obtained in Example 2 with ultraviolet stabilizer, Example 12; conditions: fulgimide compound obtained in Example 2 (0.2 part) with 0.2 part ultraviolet stabilizer in poly(methyl methacrylate) film; xenon fadeometer
Protocol: (§2) One hundred parts of benzene, 10 parts of poly(methyl methacrylate), 0.2 part of the fulgimide compound obtained in Example 1 and 0.2 part of each of the compounds shown in Table 5 as an ultraviolet stabilizer were mixed to form a solution. The solution was cast on a slide glass (11.2×3.7cm) to form a cast film having a thickness of 0.1 mm.
(§3) The fatigue life of photochromic film was measured as in Example 9 by a xenon long-life fadeometer (FAL-25AX-HC made by Suga Testing Instrument Co., Ltd.).
Example 11 was repeated except that the fulgimide compound obtained in Example 2 was used instead of fulgimide compound used in Example 11.

[6] = Fatigue life of film of fulgimide compound obtained in Example 1 with ultraviolet stabilizer, Example 11; conditions: fulgimide compound obtained in Example 1 (0.2 part) with 0.2 part ultraviolet stabilizer in poly(methyl methacrylate) film; xenon fadeometer
Excerpt: as §1, §2, §3

[7] = Fatigue life of film of fulgimide compound obtained in Example 1 with varied amounts of ultraviolet stabilizer, Example 13; conditions: fulgimide compound of Example 1
Protocol: […] The solution was cast on a slide glass (11.2×3.7cm) to form a cast film having a thickness of 0.1 mm.
as §3

[8] = stabilizer amount added 0.002 (1 part per 100 parts by weight of fulgimide)
[9] = stabilizer amount added 0.1 (50 parts per 100 parts by weight of fulgimide)
[10] = stabilizer amount added 0.8 (400 parts per 100 parts by weight of fulgimide)
[11] = stabilizer amount added 20 (10000 parts per 100 parts by weight of fulgimide)

| Initial color density [1] | λmax [1] | T1/2 (fatigue life) [1] | Structure (SMILES) | further results |
| --- | --- | --- | --- | --- |
| 0.62 | 535 nm | 38 h | COC(=O)CN1C(=O)C2=C(C)c3ccsc3C3(C4CC5CC(C4)CC3C5)C2C1=O (stereo not shown) [(1)] | Initial color density [2]: 0.5; λmax [2]: 540 nm; T1/2 [2]: 40 h; Fading speed [3]: 39 s |
| 0.83 | 553 nm | 46 h | CC1=C2C(=O)N(CC#N)C(=O)C2C2(c3sccc31)C1CC3CC(C1)CC2C3 (stereo not shown) [(2)] | T1/2 [4]: 182 h; Initial color density [2]: 0.64; λmax [2]: 562 nm; T1/2 [2]: 50 h; Fading speed [3]: 26 s |
| 0.42 | 535 nm | 13 h | CC1=C2C(=O)N(CCc3ccc4ccccc4c3)C(=O)C2C2(CC3CCC2C3)c2sc(Br)cc21 (stereo not shown) [(3)] | T1/2 [4]: 77 h; Fading speed [3]: 71 s |
| 0.51 | 520 nm | 24 h | CCC(C(=O)OCCc1ccc2ccccc2c1)N1C(=O)C2=C(C)c3ccsc3C3(C4CC5CC(C4)CC3C5)C2C1=O (stereo not shown) [(5)] | Initial color density [2]: 0.4; λmax [2]: 520 nm; T1/2 [2]: 31 h; Fading speed [3]: 58 s |
| 0.38 | 520 nm | 15 h | CC1=C2C(=O)OC(=O)C2C2(CC3CCC2C3)c2sc(Br)cc21 (stereo not shown) [(7)] | Fading speed [3]: 21 s |
| 0.59 | 542 nm | 30 h | COc1ccc2c3c(sc2c1)C1(C2CC4CC(C2)CC1C4)C1C(=O)N(CCl)C(=O)C1=C3C (stereo not shown) [(9)] |  |
| 0.61 | 525 nm | 39 h | CNC(=O)CN1C(=O)C2=C(C)c3cc([N+](=O)[O-])sc3C3(C4CC5CC(C4)CC3C5)C2C1=O (stereo not shown) [(11)] |  |
| 0.79 | 560 nm | 31 h | COC(=O)C(C)N1C(=O)C2=C(c3ccccc3)c3ccoc3C3(C4CC5CC3CC(Cl)(C5)C4)C2C1=O (stereo not shown) [(12)] | T1/2 [4]: 160 h |
| 0.82 | 490 nm | 42 h | COC12CC3CC(C1)C1(c4oc5ccccc5c4C(C)=C4C(=O)N(CC(=O)OC(C)(C)CCC#N)C(=O)C41)C(C3)C2 (stereo not shown) [(14)] | Initial color density [2]: 0.63; λmax [2]: 500 nm; T1/2 [2]: 42 h |
| 0.84 | 492 nm | 31 h | COCCOCN1C(=O)C2=C(C)c3c(oc4ccccc34)C3(C4CC5CC(F)(C4)CC3(F)C5)C2C1=O (stereo not shown) [(16)] |  |
| 0.49 | 550 nm | 48 h | CCCCC12CC3CC(C1)C1(c4c(OC)cc(OC)cc4C(c4ccccc4)=C4C(=O)N(C(C)(C)C#N)C(=O)C41)C(C3)C2 (stereo not shown) [(17)] | T1/2 [4]: 188 h |
| 0.52 | 519 nm | 41 h | CCC1=C2C(=O)N(CC(=O)CCC(=O)CCl)C(=O)C2C2(c3c1sc1ccccc31)C1(F)C(F)(F)C3(F)C(F)(F)C(F)(C1(F)F)C(F)(F)C2(F)C3(F)F (stereo not shown) [(18)] |  |
| 0.47 | 520 nm | 43 h | CC1=C2C(=O)N(CC(=O)OCC(C)C)C(=O)C2C2(CC3CCC2C3)c2sc(Br)cc21 (stereo not shown) [(19)] |  |
| 0.52 | 576 nm | 36 h | CCCCC1=C2C(=O)N(CC(C)(C)CCOC(=O)CBr)C(=O)C2C2(CC3CCC2C3(C)C)c2sc3c(c21)CCCC3 (stereo not shown) [(21)] |  |
| 0.9 | 535 nm | 48 h | CC1=C2C(=O)N(CC#N)C(=O)C2C2(c3occc31)C1CC3CC(C1)CC2C3 (stereo not shown) [(28)] | Initial color density [2]: 0.72; λmax [2]: 540 nm; T1/2 [2]: 49 h |
| 0.49 | 546 nm | 12 h | CCn1c2c(c3ccccc31)C(C)=C1C(=O)OC(=O)C1C21C2CCC(C2)C1(C)C (stereo not shown) [(94)] |  |
| 0.53 | 540 nm | 11 h | CC1=C2C(=O)OC(=O)C2C2(CC3CCC2(C)C3(C)C)c2sc(C)cc21 (stereo not shown) [(95)] |  |
| 0.31 | 506 nm | 8 h | CC1=C2C(=O)N(c3ccccc3)C(=O)C2C2(CC3CCC2C3)c2sc(Br)cc21 (stereo not shown) [(97)] |  |
|  | 513 nm | 11 h | CC1=C2C(=O)N(c3ccc(C)cc3)C(=O)C2C2(CC3CCC2C3)c2sc3ccccc3c21 (stereo not shown) [(98)] |  |
| 0.24 | 510 nm | 8 h | CCN1C(=O)C2=C(C)c3cc(OC)c(OC)c(OC)c3C3(CC4CCC3C4)C2C1=O (stereo not shown) [(99)] |  |
| 0.7 | 530 nm | 3 h | CCN1C(=O)C2=C(C)c3ccsc3C3(C4CC5CC(C4)CC3C5)C2C1=O (stereo not shown) [(X), reference compound] |  |
|  |  |  | CC(C)(C)CC(C)(C)c1ccc([O-])c(Sc2cc(C(C)(C)CC(C)(C)C)ccc2[O-])c1.CCCCN.[Ni+2] [Cyasorb UV1084] | T1/2 [5]: 182 h; T1/2 [6]: 152 h; T1/2 [7, 8]: 110 h; T1/2 [7, 9]: 140 h; T1/2 [7, 10]: 160 h; T1/2 [7, 11]: 180 h |
|  |  |  | CCOP(=O)([O-])Cc1cc(C(C)(C)C)c(O)c(C(C)(C)C)c1.CCOP(=O)([O-])Cc1cc(C(C)(C)C)c(O)c(C(C)(C)C)c1.[Ni+2] [Irgastab 2002] | T1/2 [5]: 176 h; T1/2 [6]: 147 h |
|  |  |  | CCCCN(CCCC)C(=S)[S-].CCCCN(CCCC)C(=S)[S-].[Ni+2] [Rylex NBC] | T1/2 [5]: 190 h; T1/2 [6]: 158 h |
|  |  |  | CCCCC(Cc1cc(C(C)(C)C)c(O)c(C(C)(C)C)c1)(C(=O)OC1CC(C)(C)N(C)C(C)(C)C1)C(=O)OC1CC(C)(C)N(C)C(C)(C)C1 [Tinuvin 144] | T1/2 [5]: 182 h; T1/2 [6]: 152 h |
|  |  |  | CN1C(C)(C)CC(OC(=O)CCCCCCCCC(=O)OC2CC(C)(C)N(C)C(C)(C)C2)CC1(C)C [Tinuvin 765] | T1/2 [5]: 191 h; T1/2 [6]: 159 h; T1/2 [7, 8]: 106 h; T1/2 [7, 9]: 152 h; T1/2 [7, 10]: 166 h; T1/2 [7, 11]: 182 h |

| Structure (SMILES) | Initial color density [1] | λmax [1] | T1/2 (fatigue life) [1] | further results |
| --- | --- | --- | --- | --- |
| CC1=C2C(=O)N(CCCCC(=O)OCCc3cccc4ccccc34)C(=O)C2C2(c3sccc31)C1CC3CC(C1)CC2C3 (stereo not shown) [(6)] | 0.49 | 538 nm | 16 h | T1/2 [4]: 65 h; Fading speed [3]: 76 s |
| CC1=C2C(=O)N(C[N+](=O)[O-])C(=O)C2C2(c3sc(C)cc31)C1CC3CC(C1)CC2C3 (stereo not shown) [(8)] | 0.72 | 556 nm | 30 h | Initial color density [2]: 0.56; λmax [2]: 562 nm; T1/2 [2]: 32 h |
| CC(=O)CN1C(=O)C2=C(c3ccccc3)c3cc(-c4ccccc4)sc3C3(C4CC5CC(C4)CC3C5)C2C1=O (stereo not shown) [(10)] | 0.58 | 601 nm | 40 h | Initial color density [2]: 0.47; λmax [2]: 610 nm; T1/2 [2]: 43 h |
| CCCCC12CC3CC(C1)C1(c4c(n(C)c5ccccc45)C(C)=C4C(=O)N(CC(=O)OCCC#N)C(=O)C41)C(Cl)(C3)C2 (stereo not shown) [(29)] | 0.71 | 576 nm | 44 h | Initial color density [2]: 0.56; λmax [2]: 583 nm; T1/2 [2]: 45 h |
